Article PMC3693772, “Protein expression, biochemical pharmacology of signal transduction, and relation to intraocular pressure modulation by bradykinin B2 receptors in ciliary muscle” (Molecular Vision, 2013)
“And” between values parts separate entries of the source, which are not always exact repeats. Equal values may be shown once. “Also recorded” adds a separate entry of the source. Read-outs that look alike come from different tables or passages of the source.

How the values were obtained:
[1] = system: cynomolgus monkey eyes; experiment: IOP after topical ocular dosing in cynomolgus monkeys; assay type: in vivo; conditions: for IOP change (% of control) / IOP: 100 µg topical
Procedure: Intraocular pressure measurements
To extend our in vitro observations of the high density of B2-receptor protein in human and cynomolgus monkey ciliary muscle and non-pigmented ciliary epithelium, we studied the effects of topically administered BK (100 µg total dose in a sterile vehicle) on IOP in normotensive and TM-ablated hypertensive eyes of these animals. […] However, since we could not subject the monkeys to additional studies involving BK delivery to the eye interior, it was decided that intravitreal (ivt) injection of BK into pigmented Dutch-Belt rabbits would be worth pursuing. Thus, after light corneal anesthesia with 0.1% proparacaine, basal IOPs were determined in up to 10 Dutch-Belt rabbits using an Alcon Pneumotonometer (Alcon Laboratories Inc., Fort Worth, TX). After this time, 50 µg of BK (B2 agonist) or Des-Arg^9-BK (B1 agonist) in 20 µl of sterile basal salt solution (BSS plus), or just BSS plus vehicle, was injected ivt into one eye of each rabbit and the IOP determined at various times thereafter. Authors confirm adherence to the ARVO Statement for Animals in Ophthalmic and Vision Research, with all animal studies conducted according the guidelines for Animal Care and Use at Alcon Research Ltd.

[2] = system: pro-MMP-3, h-CM cells; experiment: pro-MMP-3 release from h-CM cells; assay type: cell-based, human; conditions: BK 10 nM to 1 µM, 24 h at 37 °C; n=5
Procedure: (§1) Measurement of extracellular signal-regulated kinase-1/2 phosphorylation and pro-matrix metalloproteinase production
(§2) The release of pro-MMP-1/2/3 in the extracellular medium of h-CM cells exposed to kinin’s, for 24 h at 37 °C [29, 30] was studied next. Thus, h-CM cells isolated from multiple human donor eyes were cultured as described above and then serum-starved for 24 h prior to the addition of any test compound. Cells were incubated with the vehicle or test compound for 24 hours at 37 °C after which the medium was collected and concentrated ten-fold using Centricon concentrators (Millipore Corp., Bellireca, MA). Equal volumes of this concentrate were loaded on 10% SDS-polyacrylamide gels (SDS-PAGE) and the proteins separated and transferred to nitrocellulose membranes. The membranes were then blocked with 5% non-fat dry milk (Bio-Rad Laboratories, Hercules, CA) followed by incubation with antibodies to pro-MMP-1, pro-MMP-2, or pro-MMP-3 for 12 hours at 4 °C with gentle shaking. After washing, these membranes were incubated with appropriate secondary antibodies (HRP-conjugated; dilution 1:3000) for 1 hour at 20 °C. […] For chemiluminescent detection, the membranes were treated with enhanced chemiluminescent reagent (Amersham Pharmacia, Piscataway, NJ) and the signal was quantified using a Bio-Rad Versadoc imaging system (Bio-Rad Laboratories, Hercules, CA).

[3] = system: h-CM cells; experiment: PGD2 production in h-CM cells; assay type: cell-based, human; conditions: with or without BK; limit of detection PGD2=200 pg/ml
[4] = system: human TM cells; conditions: ref [33]; cited from earlier work
[5] = system: h-CM cells; assay type: cell-based, human; conditions: 1 h at 37 °C; enzyme immunoassay; mean ± SEM, 3 to 6 experiments; read-out: PGE2 production in h-CM cells (EC50)
[6] = system: B1 subtype; parameters: method as in PMID 1313585; conditions: ref [1]; cited from earlier work
[7] = system: h-CM cells; assay type: cell-based, human; conditions: 1 h at 37 °C; enzyme immunoassay; mean ± SEM, 3 to 6 experiments; read-out: PGF2α production in h-CM cells (EC50)
[8] = system: pro-MMP-1, h-CM cells; experiment: pro-MMP-1 release from h-CM cells; assay type: cell-based, human; conditions: BK 10 nM to 1 µM, 24 h at 37 °C; n=6
Procedure: as §1, §2

[9] = system: CHO-B2 cells (human cloned B2 receptor); assay type: cell-based, Chinese hamster ovary cells
[10] = system: pro-MMP-2, h-CM cells; experiment: pro-MMP-2 release from h-CM cells; assay type: cell-based, human; conditions: BK 10 nM to 1 µM, 24 h at 37 °C; n=6
Procedure: as §1, §2

[11] = system: CHO-B2 cells; conditions: read-out: PGD2 production in CHO-B2 cells (EC50), 1 h at 37 °C, enzyme immunoassay
Procedure: Measurement of prostaglandins in human ciliary muscle and Chinese hamster ovary cells expressing B2 receptors
This involved stimulating h-CM cells and CHO-B2 cells with various concentrations of test peptides and measuring the release of various PGs in the extracellular medium. The concentration-dependent effects of these peptides on total PGs, and specifically PGE2, PGF2α, and PGD2 release, were studied. Cells were grown as a monolayer in a 24-well plate (precoated with fibronectin) to confluence and subsequently serum-starved overnight before the experiment. On the day of the experiment, just before the drug was added, the wells were aspirated completely, and 990 µl basal medium and 10 µl 100× series of concentrations of the different peptide agonists were added to achieve the desired final concentrations of each compound (e.g., 0.1 nM to 10 µM). […] At the end of the incubation period, the cellular supernatants were collected and stored at −80 °C or used immediately to determine the PG content. Cell supernatants were tested for total PG levels and sub-species of PGs (PGE2, PGF2α, and PGD2) using specific competitive enzyme immunoassays (Cayman Chemical Co., Ann Arbor, MI) as directed in the manufacturer’s recommended protocols using the supplied standards and reagents. The limits of detection for various PGs were as follows: total PGs=29 pg/ml; PGE2=15 pg/ml; PGF2α=9 pg/ml; PGD2=200 pg/ml.

[12] = normal pressure eyes, 1 h, mean ± SEM, twelve monkeys
[13] = normal pressure eyes, 3 h, mean ± SEM, twelve monkeys
[14] = normal pressure eyes, 6 h, mean ± SEM, twelve monkeys
[15] = normal pressure eyes, 24 h, mean ± SEM, twelve monkeys
[16] = ocular hypertensive eyes, 1 h, mean ± SEM, twelve monkeys
[17] = ocular hypertensive eyes, 3 h, mean ± SEM, twelve monkeys
[18] = ocular hypertensive eyes, 6 h, mean ± SEM, twelve monkeys
[19] = ocular hypertensive eyes, 24 h, mean ± SEM, twelve monkeys

Substance: H-RPPGFSPFR-OH [BK]
- IOP effect of topical BK ([1]; 100 µg topical ocular, conscious cynomolgus monkeys, normotensive and hypertensive eyes): failed to alter IOP; also recorded: no remarkable changes in IOP; also recorded: no alteration in IOP; also recorded: failed to modulate IOP
- IOP change (% of control) ([1]; normal pressure eyes, 0 h (baseline)): 0%
- IOP ([1]; normal pressure eyes, 0 h (baseline), mean ± SEM, twelve monkeys): 27.1±1.0 mmHg
- IOP [1, 12]: 27.1±1.1 mmHg
- IOP change (% of control) [1, 12]: 0.2±2.5%
- IOP [1, 13]: 26.6±0.7 mmHg
- IOP change (% of control) [1, 13]: −1.0±2.9%
- IOP [1, 14]: 27.2±1.1 mmHg
- IOP change (% of control) [1, 14]: 0.8±2.3%
- IOP [1, 15]: 27.8±1.4 mmHg
- IOP change (% of control) [1, 15]: 2.4±3.3%
- IOP change (% of control) ([1]; ocular hypertensive eyes, 0 h (baseline)): 0%
- IOP ([1]; ocular hypertensive eyes, 0 h (baseline), mean ± SEM, twelve monkeys): 36.8±1.6 mmHg
- IOP [1, 16]: 35.9±1.8 mmHg
- IOP change (% of control) [1, 16]: −2.6±1.5%
- IOP [1, 17]: 35.7±1.6 mmHg
- IOP change (% of control) [1, 17]: −2.7±3.3%
- IOP [1, 18]: 36.6±1.7 mmHg
- IOP change (% of control) [1, 18]: −0.4±3.0%
- IOP [1, 19]: 35.3±1.6 mmHg
- IOP change (% of control) [1, 19]: −4.1±2.3%
- pro-MMP-3 release vs basal level [2]: 1.41±0.09 fold
- PGD2 release in h-CM cells [3]: no PGD2 was detected
- Production of PGs in human TM cells [4]: produced various PGs
- EC50 [5]: 8.9 ± 0.2 nM
- Affinity for B1 subtype [6]: low affinity
- EC50 [7]: 15.9 ± 9.2 nM
- pro-MMP-1 release vs basal level [8]: 3.12±0.46 fold
- EC50 ([9]; 1 h at 37 °C, enzyme immunoassay, mean ± SEM, 3 to 6 experiments, read-out: Total PGs production in CHO-B2 cells (EC50)): 0.0263 ± 0.0066 nM
- BK-induced total PGs production/secretion, CHO-B2 cells ([9]; n=6): 913.6 ± 47.6 pg/mL and 913.6 pg/mL
- Elevation in extracellular PGs, CHO-B2 cells ([9]; relative to basal levels): 4.9 fold
- pro-MMP-2 release vs basal level [10]: 1.67±0.25 fold
- EC50 ([11]; first of two values in cell): 0.0113 nM
- EC50 ([11]; second of two values in cell): 0.181 nM
